Experimental data published in PubChem BioAssay (NCI).
Several values for one entry are separate records, joined by “and”; a condition that tells them apart may be missing. Identical values can stand only once.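 A five-concentration, 48-hour dose response in 96-well plates underlies each endpoint, interpolated linearly between surrounding concentrations. GI50 is the concentration that inhibits growth by half. TGI: total growth inhibition.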

Columns and labels:
Assay in all cases: NCI tumour cell line growth inhibition, 48 h
786-0 renal = test system: 786-0 renal
COLO 205 colon = test system: COLO 205 colon
DLD-1 colon = test system: DLD-1 colon
DU-145 prostate = test system: DU-145 prostate
HS 578T breast = test system: HS 578T breast
KM12 colon = test system: KM12 colon
NCI-H522 lung = test system: NCI-H522 lung
NCI/ADR-RES ovarian = test system: NCI/ADR-RES ovarian
OVCAR-3 ovarian = test system: OVCAR-3 ovarian
OVCAR-4 ovarian = test system: OVCAR-4 ovarian
SF-268 CNS = test system: SF-268 CNS
SN12K1 renal = test system: SN12K1 renal
SNB-19 CNS = test system: SNB-19 CNS
SNB-78 CNS = test system: SNB-78 CNS
LXFL 529 NSCLC = test system: LXFL 529 NSCLC
NCI-H23 lung = test system: NCI-H23 lung
RXF-631 renal = test system: RXF-631 renal
SF-539 CNS = test system: SF-539 CNS

C[C@@]1(CO)[C@H](O)CC[C@@]2(C)[C@H]1CC[C@H]1C[C@@H]3C[C@@]12CC[C@@]3(O)COC(=O)CN
GI50 (786-0 renal): 1.12 µM
TGI (786-0 renal): 60.8 µM and 108 µM
GI50 (COLO 205 colon): 82.4 µM
TGI (COLO 205 colon): 39.7 µM and 193 µM
GI50 (DLD-1 colon): > 500 µM and 104 µM
TGI (DLD-1 colon): > 500 µM
GI50 (DU-145 prostate): 2.02 µM
TGI (DU-145 prostate): > 59.8 µM and 75.5 µM
GI50 (HS 578T breast): 110 µM
TGI (HS 578T breast): > 97.2 µM and 214 µM
GI50 (KM12 colon): > 500 µM and 101 µM
TGI (KM12 colon): 73.7 µM and > 500 µM and 238 µM
GI50 (NCI-H522 lung): 14.6 µM and 106 µM and 33.1 µM
TGI (NCI-H522 lung): > 82.2 µM and > 500 µM and 172 µM
TGI (NCI/ADR-RES ovarian): 79.9 µM and > 500 µM and 163 µM
GI50 (OVCAR-3 ovarian): > 500 µM and 105 µM
TGI (OVCAR-3 ovarian): > 500 µM and 230 µM
GI50 (OVCAR-4 ovarian): > 500 µM and 111 µM
TGI (OVCAR-4 ovarian): > 87.1 µM and > 500 µM and 182 µM
GI50 (SF-268 CNS): 65.6 µM
TGI (SF-268 CNS): > 500 µM and 242 µM
GI50 (SN12K1 renal): 7.45 µM and 1.49 µM
TGI (SN12K1 renal): > 500 µM
TGI (SNB-19 CNS): > 500 µM and 254 µM
GI50 (SNB-78 CNS): > 500 µM
TGI (SNB-78 CNS): > 500 µM

C1CN1c1nc(N2CC2)nc(N2CC2)n1
GI50 (786-0 renal): 1.83 µM
TGI (786-0 renal): 17 µM and 16 µM
TGI (COLO 205 colon): 32 µM and 41 µM
TGI (DLD-1 colon): 78.8 µM
GI50 (DU-145 prostate): 0.825 µM
GI50 (HS 578T breast): 23.4 µM
TGI (HS 578T breast): 87.5 µM and 52.8 µM
GI50 (KM12 colon): 13 µM
TGI (KM12 colon): 42.3 µM and 35.9 µM
TGI (LXFL 529 NSCLC): 29.7 µM
GI50 (NCI-H23 lung): 5.55 µM
TGI (NCI-H23 lung): 20 µM and 15 µM
TGI (NCI-H522 lung): 21 µM and 12.2 µM
GI50 (NCI/ADR-RES ovarian): 3.48 µM
TGI (NCI/ADR-RES ovarian): 38.6 µM and 12.8 µM
TGI (OVCAR-3 ovarian): 41.7 µM and 25.8 µM
GI50 (OVCAR-4 ovarian): 13.8 µM
TGI (OVCAR-4 ovarian): 36.5 µM and 20.3 µM
TGI (RXF-631 renal): 42.3 µM
GI50 (SF-268 CNS): 1.45 µM
TGI (SF-268 CNS): 37.5 µM and 14.8 µM
GI50 (SF-539 CNS): 1.78 µM
TGI (SF-539 CNS): 12.8 µM and 8.65 µM
TGI (SN12K1 renal): 26 µM
GI50 (SNB-19 CNS): 4.55 µM
TGI (SNB-19 CNS): 58.2 µM and > 51.3 µM
